In PubChem BioAssay AID1259407 (Chemical Carcinogenesis Research Information System (CCRIS), 2018):
Activity calls are given as the source filed them. The rule behind the calls is not given here.

Tested on: CCRIS mutagenicity, Ames/micronucleus/aberration tests
Experiment: CCRIS mutagenicity studies

[O]=[Cr](=[O])([OH])[O][Cr](=[O])(=[O])[OH]
mutagenic call (Test System: AMES SALMONELLA TYPHIMURIUM, Strain/Indicator: TA92, Metabolic Activation: NONE, Method: STANDARD PLATE): active; positive | mutagenic call (Test System: AMES SALMONELLA TYPHIMURIUM, Strain/Indicator: TA97, Metabolic Activation: HAMSTER, LIVER, S-9, AROCLOR 1254 (30%), Method: PREINCUBATION): active; positive | mutagenic call (Test System: AMES SALMONELLA TYPHIMURIUM, Strain/Indicator: TA97, Metabolic Activation: NONE, Method: PREINCUBATION): active; positive | mutagenic call (Test System: AMES SALMONELLA TYPHIMURIUM, Strain/Indicator: TA97, Metabolic Activation: RAT, LIVER, S-9, AROCLOR 1254 (30%), Method: PREINCUBATION): active; positive | mutagenic call (Test System: AMES SALMONELLA TYPHIMURIUM, Strain/Indicator: TA97A, Metabolic Activation: NONE, Method: MICROSUSPENSION-PREINCUBATION): active; positive | mutagenic call (Test System: AMES SALMONELLA TYPHIMURIUM, Strain/Indicator: TA97A, Metabolic Activation: RAT, LIVER, S-9, AROCLOR 1254, Method: MICROSUSPENSION-PREINCUBATION): active; positive | mutagenic call (Test System: AMES SALMONELLA TYPHIMURIUM, Strain/Indicator: TA98, Metabolic Activation: HAMSTER, LIVER, S-9, AROCLOR 1254 (30%), Method: PREINCUBATION): active; positive | mutagenic call (Test System: AMES SALMONELLA TYPHIMURIUM, Strain/Indicator: TA98, Metabolic Activation: NONE, Method: MICROSUSPENSION-PREINCUBATION): active; positive | mutagenic call (Test System: AMES SALMONELLA TYPHIMURIUM, Strain/Indicator: TA98, Metabolic Activation: NONE, Method: PREINCUBATION): active; positive | mutagenic call (Test System: AMES SALMONELLA TYPHIMURIUM, Strain/Indicator: TA98, Metabolic Activation: NONE, Method: STANDARD PLATE): active; positive | mutagenic call (Test System: AMES SALMONELLA TYPHIMURIUM, Strain/Indicator: TA98, Metabolic Activation: RAT, LIVER, S-9, AROCLOR 1254 (30%), Method: PREINCUBATION): active; positive | mutagenic call (Test System: AMES SALMONELLA TYPHIMURIUM, Strain/Indicator: TA98, Metabolic Activation: RAT, LIVER, S-9, AROCLOR 1254, Method: MICROSUSPENSION-PREINCUBATION): active; positive | mutagenic call (Test System: AMES SALMONELLA TYPHIMURIUM, Strain/Indicator: TA98, Metabolic Activation: RAT, LIVER, S-9, Method: STANDARD PLATE): active; positive | mutagenic call (Test System: AMES SALMONELLA TYPHIMURIUM, Strain/Indicator: TA100, Metabolic Activation: HAMSTER, LIVER, S-9, AROCLOR 1254 (30%), Method: PREINCUBATION): active; positive | mutagenic call (Test System: AMES SALMONELLA TYPHIMURIUM, Strain/Indicator: TA100, Metabolic Activation: NONE, Method: MICROSUSPENSION-PREINCUBATION): active; positive | mutagenic call (Test System: AMES SALMONELLA TYPHIMURIUM, Strain/Indicator: TA100, Metabolic Activation: NONE, Method: PREINCUBATION): active; positive | mutagenic call (Test System: AMES SALMONELLA TYPHIMURIUM, Strain/Indicator: TA100, Metabolic Activation: RAT, LIVER, S-9, AROCLOR 1254 (30%), Method: PREINCUBATION): active; positive | mutagenic call (Test System: AMES SALMONELLA TYPHIMURIUM, Strain/Indicator: TA100, Metabolic Activation: RAT, LIVER, S-9, AROCLOR 1254, Method: MICROSUSPENSION-PREINCUBATION): active; positive | mutagenic call (Test System: AMES SALMONELLA TYPHIMURIUM, Strain/Indicator: TA100, Metabolic Activation: RAT, LIVER, S-9, AROCLOR 1254, Method: STANDARD PLATE): active; positive | mutagenic call (Test System: AMES SALMONELLA TYPHIMURIUM, Strain/Indicator: TA100, Metabolic Activation: RAT, LIVER, S-9, Method: STANDARD PLATE): active; positive | mutagenic call (Test System: AMES SALMONELLA TYPHIMURIUM, Strain/Indicator: TA102, Metabolic Activation: NONE, Method: FLUCTUATION TEST): active; positive | mutagenic call (Test System: AMES SALMONELLA TYPHIMURIUM, Strain/Indicator: TA102, Metabolic Activation: NONE, Method: MICROSUSPENSION-PREINCUBATION): active; positive | mutagenic call (Test System: AMES SALMONELLA TYPHIMURIUM, Strain/Indicator: TA102, Metabolic Activation: NONE, Method: STANDARD PLATE): active; positive | mutagenic call (Test System: AMES SALMONELLA TYPHIMURIUM, Strain/Indicator: TA102, Metabolic Activation: RAT, LIVER, S-9, AROCLOR 1254, Method: MICROSUSPENSION-PREINCUBATION): active; positive | mutagenic call (Test System: AMES SALMONELLA TYPHIMURIUM, Strain/Indicator: TA103, Metabolic Activation: NONE, Method: STANDARD PLATE): active; positive | mutagenic call (Test System: AMES SALMONELLA TYPHIMURIUM, Strain/Indicator: TA104, Metabolic Activation: NONE, Method: STANDARD PLATE): active; positive | mutagenic call (Test System: AMES SALMONELLA TYPHIMURIUM, Strain/Indicator: TA1535, Metabolic Activation: NONE, Method: STANDARD PLATE): inactive; negative | mutagenic call (Test System: AMES SALMONELLA TYPHIMURIUM, Strain/Indicator: TA1535, Metabolic Activation: RAT, LIVER, S-9, Method: STANDARD PLATE): inactive; negative | mutagenic call (Test System: AMES SALMONELLA TYPHIMURIUM, Strain/Indicator: TA1537, Metabolic Activation: NONE, Method: STANDARD PLATE): inactive; negative | mutagenic call (Test System: AMES SALMONELLA TYPHIMURIUM, Strain/Indicator: TA1537, Metabolic Activation: RAT, LIVER, S-9, Method: STANDARD PLATE): inactive; negative | mutagenic call (Test System: AMES SALMONELLA TYPHIMURIUM, Strain/Indicator: TA1538, Metabolic Activation: NONE, Method: STANDARD PLATE): inactive; negative | mutagenic call (Test System: AMES SALMONELLA TYPHIMURIUM, Strain/Indicator: TA1538, Metabolic Activation: RAT, LIVER, S-9, Method: STANDARD PLATE): inactive; negative | mutagenic call (Test System: AMES SALMONELLA TYPHIMURIUM, Strain/Indicator: TA2638, Metabolic Activation: NONE, Method: PREINCUBATION): active; positive | mutagenic call (Test System: AMES SALMONELLA TYPHIMURIUM, Strain/Indicator: TA2638, Metabolic Activation: NONE, Method: STANDARD PLATE): active; positive | mutagenic call (Test System: AMES SALMONELLA TYPHIMURIUM, Strain/Indicator: TA2638A, Metabolic Activation: NONE, Method: STANDARD PLATE): active; positive | mutagenic call (Test System: E. COLI, Strain/Indicator: WP2 (PKM101), Metabolic Activation: NONE, Method: STANDARD PLATE): active; positive | mutagenic call (Test System: E. COLI, Strain/Indicator: WP2 UVRA (PKM101), Metabolic Activation: NONE, Method: STANDARD PLATE): active; positive | mutagenic call (Test System: E. COLI, Strain/Indicator: WP2 UVRA, Metabolic Activation: NONE, Method: SPOT TEST): active; positive | mutagenic call (Test System: E. COLI, Strain/Indicator: WP2 UVRA, Metabolic Activation: NONE, Method: STANDARD PLATE): active; positive | mutagenic call (Test System: UDS HUMAN AMNION FL CELL LINE, Strain/Indicator: THY INCORP, Metabolic Activation: NONE, Method: LIQUID SCINTILLATION COUNTING): active; positive

O[C@@H]1[C@H]2O[C@H]2c2c(cc3ccc4cccc5c6ccccc6c2c3c45)[C@H]1O
mutagenic call (Test System: AMES SALMONELLA TYPHIMURIUM, Strain/Indicator: TA97, Metabolic Activation: NONE, Method: PREINCUBATION (EXPOSURE IN MEDIUM WITH KCL)): active; positive | mutagenic call (Test System: AMES SALMONELLA TYPHIMURIUM, Strain/Indicator: TA97, Metabolic Activation: NONE, Method: PREINCUBATION (EXPOSURE IN MEDIUM WITHOUT KCL)): active; positive | mutagenic call (Test System: AMES SALMONELLA TYPHIMURIUM, Strain/Indicator: TA98, Metabolic Activation: NONE, Method: PREINCUBATION (EXPOSURE IN MEDIUM WITH KCL)): active; positive | mutagenic call (Test System: AMES SALMONELLA TYPHIMURIUM, Strain/Indicator: TA98, Metabolic Activation: NONE, Method: PREINCUBATION (EXPOSURE IN MEDIUM WITHOUT KCL)): active; positive | mutagenic call (Test System: AMES SALMONELLA TYPHIMURIUM, Strain/Indicator: TA100, Metabolic Activation: NONE, Method: PREINCUBATION (EXPOSURE IN MEDIUM WITH KCL)): active; positive | mutagenic call (Test System: AMES SALMONELLA TYPHIMURIUM, Strain/Indicator: TA100, Metabolic Activation: NONE, Method: PREINCUBATION (EXPOSURE IN MEDIUM WITHOUT KCL)): active; positive | mutagenic call (Test System: AMES SALMONELLA TYPHIMURIUM, Strain/Indicator: TA104, Metabolic Activation: NONE, Method: PREINCUBATION (EXPOSURE IN MEDIUM WITH KCL)): active; positive | mutagenic call (Test System: AMES SALMONELLA TYPHIMURIUM, Strain/Indicator: TA104, Metabolic Activation: NONE, Method: PREINCUBATION (EXPOSURE IN MEDIUM WITHOUT KCL)): active; positive | mutagenic call (Test System: CHINESE HAMSTER V-79, Strain/Indicator: V-79/6-THIOGUANINE, Metabolic Activation: NONE): active; positive
